Test results taken from the supplement of paper PMC10307832.

Key:
Assay in all cases: relative viability (nuclei count vs DMSO), 5 days (fraction); higher = more cells survive
Apatinib + Navitoclax = compound: N#CC1(c2ccc(NC(=O)c3cccnc3NCc3ccncc3)cc2)CCCC1 [Apatinib] + CC1(C)CCC(c2ccc(Cl)cc2)=C(CN2CCN(c3ccc(C(=O)NS(=O)(=O)c4ccc(N[C@H](CCN5CCOCC5)CSc5ccccc5)c(S(=O)(=O)C(F)(F)F)c4)cc3)CC2)C1 [Navitoclax] (partner 0.5 µM)
Outline: (§1)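 Relative viability equals treated-well nuclei counts divided by vehicle-well nuclei counts. Counts came from 4× images of lung cancer cell lines grown in 1536-well plates for 5 days after pin-tool dosing on the day after seeding. Dosing used one drug alone or a fixed anchor-drug dose plus five library-drug doses (not always all listed) in √10 steps, and values are medians of duplicate plates.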

Apatinib + Luminespib = compound: N#CC1(c2ccc(NC(=O)c3cccnc3NCc3ccncc3)cc2)CCCC1 [Apatinib] + CCNC(=O)c1noc(-c2cc(C(C)C)c(O)cc2O)c1-c1ccc(CN2CCOCC2)cc1 [Luminespib] (partner 0.01 µM)
Outline: as §1

Apatinib + Lapatinib = compound: N#CC1(c2ccc(NC(=O)c3cccnc3NCc3ccncc3)cc2)CCCC1 [Apatinib] + CS(=O)(=O)CCNCc1ccc(-c2ccc3ncnc(Nc4ccc(OCc5cccc(F)c5)c(Cl)c4)c3c2)o1 [Lapatinib] (partner 2 µM)
Outline: as §1

Apatinib + Crizotinib = compound: N#CC1(c2ccc(NC(=O)c3cccnc3NCc3ccncc3)cc2)CCCC1 [Apatinib] + C[C@@H](Oc1cc(-c2cnn(C3CCNCC3)c2)cnc1N)c1c(Cl)ccc(F)c1Cl [Crizotinib] (partner 1 µM)
Outline: as §1

Cell Line: NCI-H460
- relative viability (Apatinib + Navitoclax; first compound 0.08 µM): 1.1
- relative viability (Apatinib + Navitoclax; first compound 0.253 µM): 1.14
- relative viability (Apatinib + Navitoclax; first compound 0.8 µM): 1.03
- relative viability (Apatinib + Navitoclax; first compound 2.53 µM): 1.06
- relative viability (Apatinib + Navitoclax; first compound 8 µM): 1.05
- relative viability (Apatinib + Luminespib; first compound 0.08 µM): 0.0389
- relative viability (Apatinib + Luminespib; first compound 0.253 µM): 0.0355
- relative viability (Apatinib + Luminespib; first compound 0.8 µM): 0.0311
- relative viability (Apatinib + Luminespib; first compound 2.53 µM): 0.0328
- relative viability (Apatinib + Luminespib; first compound 8 µM): 0.0337
- relative viability (Apatinib + Lapatinib; first compound 0.08 µM): 0.915
- relative viability (Apatinib + Lapatinib; first compound 0.253 µM): 0.93
- relative viability (Apatinib + Lapatinib; first compound 0.8 µM): 0.796
- relative viability (Apatinib + Lapatinib; first compound 2.53 µM): 0.905
- relative viability (Apatinib + Lapatinib; first compound 8 µM): 0.777
- relative viability (Apatinib + Crizotinib; first compound 0.08 µM): 1.04
- relative viability (Apatinib + Crizotinib; first compound 0.253 µM): 0.907
- relative viability (Apatinib + Crizotinib; first compound 0.8 µM): 0.727
- relative viability (Apatinib + Crizotinib; first compound 2.53 µM): 0.848
- relative viability (Apatinib + Crizotinib; first compound 8 µM): 0.857
